From patent US20120302609A1, “Pyrazolines for the Modulation of PKM2” (Dynamix Pharmaceuticals LTD., priority 2011, published 2012) come the findings set out here.

One test deals with H1299 cells. As to the kind of experiment: Cell cycle analysis. The test is classed as cell-based, human. Conditions: 48 hours, FIG. 6.
The next test relates to HT-29 (colon). As to the kind of experiment: Cell proliferation assay (XTT or CellTiter-Glo). The test is classed as cell-based. To be noted: Homo sapiens. The procedure: (§1) Day 0 Cells were seeded at 3000 cells/well in 100 μl full media in 96-well culture plates (60 wells/plate, external wells filled with 100 μl PBS) and incubated overnight. • Day 1 On the following day, full media was changed to the tested media and compounds were added in 0.5% DMSO final. • Day 2-5 Cells were incubated over 72 hr. • Day 5 Cell proliferation was assessed using XTT proliferation assay as follows:
The assay is based on the ability of metabolic active cells to reduce the tetrazolium salt XTT to orange colored compounds of formazan. The dye formed is water soluble and the dye intensity can be read at a given wavelength with a spectrophotometer. […] The use of multiwell plates and an ELISA reader enables testing a large number of samples and obtaining easy and rapid results. […] During incubation an orange color is formed, the intensity of which can be measured with a spectrophotometer, in this instance with an ELISA reader. The greater the number of active cells in the well, the greater the activity of mitochondria enzymes, and the higher the concentration of the dye formed, which can then be measured and quantitated.
• 1. […] The absorbance of the samples was measured against a background control as a blank (see 7) with a spectrophotometer (ELISA reader) at a wavelength of 450-500 nanometer. […] The average absorbance of the blank control wells was subtracted from that of the other wells. […]

For a further test, the system named is H-460 (lung). As to the kind of experiment: Cell proliferation assay (XTT). To be noted: Homo sapiens, NCI-H460, 72 h, Assay duration: 72 hours, Readout: XTT. The test is classed as cell-based. The procedure:
as §1
(§2) The assay is based on the ability of metabolic active cells to reduce the tetrazolium salt XTT to orange colored compounds of formazan. The dye formed is water soluble and the dye intensity can be read at a given wavelength with a spectrophotometer. The intensity of the dye is proportional to the number of metabolic active cells. The use of multiwell plates and an ELISA reader enables testing a large number of samples and obtaining easy and rapid results. The test procedure includes cultivation of cells in a 96-well plate, adding the XTT reagent and incubation for 2-24 hours. During incubation an orange color is formed, the intensity of which can be measured with a spectrophotometer, in this instance with an ELISA reader. The greater the number of active cells in the well, the greater the activity of mitochondria enzymes, and the higher the concentration of the dye formed, which can then be measured and quantitated.
• 1. […] The absorbance of the samples was measured against a background control as a blank (see 7) with a spectrophotometer (ELISA reader) at a wavelength of 450-500 nanometer. In order to measure reference absorbance (to measure non-specific readings), a wavelength of 630-690 nanometer was used and subtracted from the 450-500 nanometer measurement. • 7. Background control (blank): Slight spontaneous absorbance around 450-500 nanometer occurs in the culture medium incubated with the XTT reagent. This background absorbance depends on the culture medium, pH, incubation time and length of exposure to light. […] The average absorbance of the blank control wells was subtracted from that of the other wells. […]
(Formazan colour is commonly taken as a measure of viable cells.)

The next test concerns the target PKM1 (Homo sapiens, UniProt P14618). The experiment in a line: Isoform selectivity of pyruvate kinases. The test is classed as biochemical.
In the next test the target is PKR (Homo sapiens, UniProt P30613). The experiment in a line: Isoform selectivity of pyruvate kinases. The test is classed as biochemical.
Sequence of PKR (P30613 whole entry, canonical isoform): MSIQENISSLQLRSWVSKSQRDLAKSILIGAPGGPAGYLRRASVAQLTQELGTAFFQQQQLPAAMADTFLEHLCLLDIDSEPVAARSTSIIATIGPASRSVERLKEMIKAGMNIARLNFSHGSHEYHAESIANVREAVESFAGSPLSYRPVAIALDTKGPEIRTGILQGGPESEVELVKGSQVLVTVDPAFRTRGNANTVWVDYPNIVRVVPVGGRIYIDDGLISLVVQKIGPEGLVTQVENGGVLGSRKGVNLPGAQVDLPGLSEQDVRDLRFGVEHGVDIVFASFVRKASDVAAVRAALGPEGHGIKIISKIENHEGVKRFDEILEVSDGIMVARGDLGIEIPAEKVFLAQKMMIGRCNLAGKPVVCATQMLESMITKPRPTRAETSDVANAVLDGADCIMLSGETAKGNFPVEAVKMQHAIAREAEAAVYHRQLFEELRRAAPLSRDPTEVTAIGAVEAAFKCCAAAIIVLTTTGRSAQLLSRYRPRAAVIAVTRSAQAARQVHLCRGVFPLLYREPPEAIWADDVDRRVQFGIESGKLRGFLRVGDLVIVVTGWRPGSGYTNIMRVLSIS
Another test relates to HepG2 (liver). The experiment in a line: Cell proliferation assay (XTT). The test is classed as cell-based. Conditions: Homo sapiens, Complete media, Assay duration: 72 hours, Readout: XTT.
Description: as §2
• 1. […] The absorbance of the samples was measured against a background control as a blank (see 7) with a spectrophotometer (ELISA reader) at a wavelength of 450-500 nanometer. In order to measure reference absorbance (to measure non-specific readings), a wavelength of 630-690 nanometer was used and subtracted from the 450-500 nanometer measurement. • 7. […] This background absorbance depends on the culture medium, pH, incubation time and length of exposure to light. […]

A further test deals with HCT-116 (colon). As to the kind of experiment: Cell proliferation assay (CellTiter-Glo Luminescent). To be noted: Homo sapiens, 1 mM glucose, 96 hr. The test is classed as cell-based. (In general: Cellular ATP, detected with luciferase, serves as a proxy for viable cell number.)
The test system of another test is 786-O (kidney). The description is as above. The test is classed as cell-based. Conditions: Homo sapiens, 786-0, 1 mM glucose, 96 hr.
Test [1] deals with H1299 (Non-small cell lung carcinoma cell line). As to the kind of experiment: Cell proliferation index assay, Assay Protocol II (Fluofarma, flow cytometry). Conditions: Homo sapiens, NCI-H1299. The test is classed as cell-based. The procedure:
In a second assay to determine the inhibition of cell proliferation by a test compound, cell proliferation of the cell line of interest was measured by a cell proliferation index assay using Fluofarma (www.fluofarma.com) based technology. This assay is based on the dilution rate of a fluorescent membrane marker, which is a direct function of the number of cell divisions. Briefly, the assay is performed by loading the cells with a non-toxic fluorescent phospholipid analog before the seeding. […] Flow cytometry analysis of the fluorescent probe is performed after the loading of the cells both prior to, as well as after treatment with various concentrations of the test compound. The dilution rate of the fluorescent probe at the single cell level is directly correlated to the number of cell divisions.
On the technique in general: In flow cytometry, cells or beads pass a laser one at a time.

Sequence of PKM1 (P14618 1-531 isoform P14618-2): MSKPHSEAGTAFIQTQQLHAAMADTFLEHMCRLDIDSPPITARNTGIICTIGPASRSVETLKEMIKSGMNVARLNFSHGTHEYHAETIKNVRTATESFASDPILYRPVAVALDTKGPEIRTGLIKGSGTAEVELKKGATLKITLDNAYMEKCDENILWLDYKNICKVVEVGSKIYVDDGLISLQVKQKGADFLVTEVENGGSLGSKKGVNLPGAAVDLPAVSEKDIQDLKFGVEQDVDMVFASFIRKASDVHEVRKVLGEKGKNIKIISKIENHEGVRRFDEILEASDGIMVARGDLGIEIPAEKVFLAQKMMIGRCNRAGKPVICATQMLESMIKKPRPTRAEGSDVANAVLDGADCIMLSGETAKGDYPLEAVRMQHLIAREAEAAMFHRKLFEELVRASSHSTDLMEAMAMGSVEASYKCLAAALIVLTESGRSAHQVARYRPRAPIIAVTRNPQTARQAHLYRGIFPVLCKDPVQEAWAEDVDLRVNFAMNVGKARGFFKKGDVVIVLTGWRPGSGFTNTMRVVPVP

Consider `COc1ccc([C@@H]2CC(c3ccc(NS(=O)(=O)c4ccc(F)cc4)cc3)=NN2C(C)=O)cc1` [Compound 13A, (S)—N-(4-(1-acetyl-5-(4-methoxyphenyl)-4,5-dihydro-1H-pyrazol-3-yl)phenyl)-4-fluorobenzenesulfonamide], for which, in the test with H1299 cells, the cell cycle analysis result is on record as “most cells were arrested at the G1/S phase”. The AC50 in the test on HT-29 (colon) (1 mM glucose, Assay duration: 72 hours, Readout: XTT) is 3 to 10 µM; in the test with HT-29 (colon) (Complete media, 96 hr, CellTiter-Glo) it was 10 to 20 µM; in the test with H-460 (lung) (1 mM glucose), 10 to 20 µM; in the test with H-460 (lung) (Complete media), more than 20 µM; in the test with H-460 (lung) (Lipoprotein-free media), less than 3 µM; on PKM1, “Not active”. Moreover, the concentration at half-maximal activity (AC50) at PKR was more than 30 µM; in the test on HepG2 (liver), more than 20 µM; in the test with HCT-116 (colon), 10 to 20 µM; with 786-O (kidney), less than 3 µM.

In the case of `CCS(=O)(=O)Nc1ccc(C2=NN(C(C)=O)C(c3ccc(OC)cc3)C2)cc1` (racemic) [Compound 1A, N-(4-(1-acetyl-5-(4-methoxyphenyl)-4,5-dihydro-1H-pyrazol-3-yl)phenyl)ethanesulfonamide], the IC50 in test [1] was 40 to 100 µM.

As usually defined, the AC50 is the concentration at which the activity in the assay is half-maximal. Read a low AC50 as activity at low concentration. By IC50 is commonly meant the concentration that inhibits the measured activity by half. A lower IC50 goes with higher potency.
